Laboratory results taken from patent US6727274B2, “Arylsulphonyl substituted-tetrahydro- and hexahydro-carbazoles” (Pharmacia & Upjohn Company, priority 2001, dated 2004).

melting point: > 275 °C
Compound: CN[C@@H]1CCc2c(c3cc(S(=O)(=O)c4ccccc4)ccc3n2C)C1.Cl
